{"source": "patent US20200399250A1", "about": "“Pyrimidine Derivatives as Tropomyosin Receptor Kinase A (TRKA) Inhibitors” (BIOMED X GMBH, priority 2017, published 2020)", "key": {"TrkA [1]": {"biological_target": "T1, TrkA (Homo sapiens, UniProt P04629)", "T1 sequence (P04629 33-796)": "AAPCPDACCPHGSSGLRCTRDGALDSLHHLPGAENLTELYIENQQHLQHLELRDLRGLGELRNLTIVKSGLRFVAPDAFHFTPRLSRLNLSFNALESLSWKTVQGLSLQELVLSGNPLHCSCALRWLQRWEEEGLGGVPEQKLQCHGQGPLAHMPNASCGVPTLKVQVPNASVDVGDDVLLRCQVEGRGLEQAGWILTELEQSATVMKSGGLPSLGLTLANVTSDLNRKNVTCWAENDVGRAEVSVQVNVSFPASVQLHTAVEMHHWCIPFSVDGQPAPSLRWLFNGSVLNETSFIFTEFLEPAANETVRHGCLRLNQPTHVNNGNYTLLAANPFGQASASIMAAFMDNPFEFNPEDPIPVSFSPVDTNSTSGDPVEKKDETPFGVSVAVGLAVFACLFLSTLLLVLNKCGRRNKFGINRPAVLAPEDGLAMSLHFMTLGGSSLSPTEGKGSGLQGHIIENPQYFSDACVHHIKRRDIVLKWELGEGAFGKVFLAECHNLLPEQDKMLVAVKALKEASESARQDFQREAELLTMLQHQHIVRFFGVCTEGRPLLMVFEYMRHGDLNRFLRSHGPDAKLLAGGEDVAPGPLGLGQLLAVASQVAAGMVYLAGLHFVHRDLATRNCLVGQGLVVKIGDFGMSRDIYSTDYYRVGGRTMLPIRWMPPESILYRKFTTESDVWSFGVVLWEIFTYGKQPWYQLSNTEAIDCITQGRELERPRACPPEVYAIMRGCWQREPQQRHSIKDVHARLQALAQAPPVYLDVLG", "experiment": "KdELECT Kd measurement (KINOMEscan), TrkA", "format": "binding", "experimental": "(§1) Kd measurements were done via the KdELECT product service from DiscoverX Corporation (Freemont, Calif., USA) which also employs the KINOMEscan technology. Here, inhibitor binding constants (Kd values) are calculated from duplicate 11-point dose-response curves."}, "TrkA [2]": {"biological_target": "TrkA", "experiment": "KdELECT Kd measurement (KINOMEscan), TrkA", "format": "binding", "experimental": "as §1"}, "C57Bl/6 mice": {"test_system": "C57Bl/6 mice", "experiment": "Toxicity after i.v. injection in mice", "format": "in vivo", "conditions": "for Toxicity: single animal", "experimental": ". Dimethylsulfoxide (DMSO) from J. T. Baker (Germany), Cremophor EL (Polyoxyethyleneglycerol triricinoleate 35 castor oil) from BASF (Germany), and Saline solution 0.9% from B. Braun (Germany) were used in this study. Two types of formulations were prepared: a formulation with a high dose of compound a1 (9 mM) and a formulation with a low dose of compound a1 (1.8 mM); c.f. Tables 5 and 6. […]. The formulation with the high dose of a1 was prepared using 9% a1-DMSO stock solution, 10% Cremophor EL, and 81% saline. The formulation with the low dose of a1 contained 1.8% a1-DMSO stock solution, 5% Cremophor EL, and 93.2% saline; c.f. FIG. 2.\nExperiments were carried out in accordance with the EU Directive 86/609/EEC on the protection of animals used for scientific purposes. […]; c.f. Table 6. After injection, the mice were returned to their home cages, and after 1 hour, the mice were anaesthetized with isoflurane. Terminal blood samples were collected using a 1 ml syringe (20-G needle, B. Braun). The blood was immediately transferred into a 1.3 ml heparin-coated tube (Sarstedt). Plasma was collected by centrifugation at 1500 g for 15 minutes. The supernatant was placed in a 1.5 ml tube on dry ice and stored at −20° C."}, "AurA [3]": {"biological_target": "T2, AurA (Homo sapiens, UniProt O14965)", "T2 sequence (O14965 1-403)": "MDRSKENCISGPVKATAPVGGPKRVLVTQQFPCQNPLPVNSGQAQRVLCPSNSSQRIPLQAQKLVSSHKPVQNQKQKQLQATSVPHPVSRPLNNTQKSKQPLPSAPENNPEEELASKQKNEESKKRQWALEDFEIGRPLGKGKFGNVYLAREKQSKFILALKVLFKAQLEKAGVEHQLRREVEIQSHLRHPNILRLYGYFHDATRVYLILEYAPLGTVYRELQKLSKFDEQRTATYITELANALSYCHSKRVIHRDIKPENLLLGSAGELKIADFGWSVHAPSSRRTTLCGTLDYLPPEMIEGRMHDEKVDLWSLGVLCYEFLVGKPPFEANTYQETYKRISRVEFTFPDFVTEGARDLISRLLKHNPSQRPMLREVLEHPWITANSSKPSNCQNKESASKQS", "experiment": "KdELECT Kd measurement (KINOMEscan), AurA", "format": "binding", "experimental": "as §1"}, "TrkA [4]": {"biological_target": "T1, TrkA", "experiment": "KINOMEscan primary screen against TrkA", "format": "binding", "conditions": "% of control", "experimental": "(§2) Compounds were initially tested in a primary screen against TrkA (at 10 and 100 nM) and AurA (at 100 nM and 1 μM) using the KINOMEscan technology from DiscoverX Corporation, Fremont, Calif., USA (https://www.discoverx.com/services/drug-discovery-development-services/kinase-profiling/kinomescan).\nResults were reported as % of control (% Ctrl.=(test compound signal−positive control signal)/(DMSO signal−positive control signal). KINOMEscan is an active site-directed competition binding assay that quantitatively measures the ability of a compound to compete with an immobilized, active-site directed ligand."}, "panel of 97 kinases": {"test_system": "panel of 97 kinases", "experiment": "Selectivity profiling, scanEDGE kinase panel (KINOMEscan)", "format": "binding", "conditions": "100 nM, cut-off <35% ctrl", "experimental": "Selectivity profiling was done over a panel of 97 kinases at 100 nM concentration (scanEDGE assay panel from Discover X, which also uses the KINOMEscan technology, whereat KIT(D816V) and KIT (V559D, T6701) were replaced by TrkB and TrkC). […] The employed profiling panel consisted of the following kinases: ABL1(T3151)-phosphorylated, ABL1-nonphosphorylated, ABL1-phosphorylated, ACVR1B, ADCK3, AKT1, AKT2, ALK, AURKA, AURKB, AXL, BMPR2, BRAF, BRAF (V600E), BTK, CDK11, CDK2, CDK3, CDK7, CDK9, CHEK1, CSF1R, CSNK1D, CSNK1G2, DCAMKL1, DYRK1B, EGFR, EGFR (L858R), EPHA2, ERBB2, ERBB4, ERK1, FAK, FGFR2, FGFR3, FLT3, GSK3B, IGF1R, IKK-alpha, IKK-beta, INSR, JAK2 (JH1domain-catalytic), JAK3 (JH1domain-catalytic), JNK1, JNK2, JNK3, KIT, LKB1, MAP3K4, MAPKAPK2, MARK3, MEK1, MEK2, MET, MKNK1, MKNK2, MLK1, p38-alpha, p38-beta, PAK1, PAK2, PAK4, PCTK1, PDGFRA, PDGFRB, PDPK1, PIK3C2B, PIK3CA, PIK3CG, PIM1, PIM2, PIM3, PKAC-alpha, PLK1, PLK3, PLK4, PRKCE, RAF1, RET, RIOK2, ROCK2, RSK2 (Kin. Dom. 1-N-terminal), SNARK, SRC, SRPK3, TGFBR1, TIE2, TRKA, TRKB, TRKC, TSSK1B, TYK2 (JH1domain-catalytic), ULK2, VEGFR2, YANK3, ZAP70"}, "AurA [5]": {"biological_target": "T2, AurA", "experiment": "KINOMEscan primary screen against AurA", "format": "binding", "conditions": "% of control", "experimental": "as §2"}, "[6]": {"conditions": "duplicate 11-point dose-response curves"}}, "note": "Several values for one entry are separate records, joined by “and”; a condition that tells them apart may be missing. Identical values can stand only once. Entries after “also recorded” stand apart in the source; their conditions may differ."}
{"smiles": "CN1CCN(c2cc(Nc3cc(-c4cccc(F)c4)[nH]n3)nc(Sc3ccccc3)n2)CC1", "note": "[a1, N-[5-(3-fluorophenyl)-1H-pyrazol-3-yl]-6-(4-methylpiperazin-1-yl)-2-(phenylsulfanyl)pyrimidin-4-amine]", "values": [{"measurement": "TrkA [pKd]", "setting": "TrkA [1]", "result": 8.6}, {"measurement": "Kd", "setting": "TrkA [1]; [6]", "result": 0.0026, "unit": "µM"}, {"measurement": "ΔpKd", "setting": "TrkA [2]; TrkA pKd versus AurA pKd", "result": 3.3}, {"measurement": "improved selectivity against off-target AurA", "setting": "TrkA [2]; TrkA versus AurA", "result": "10,000 fold"}, {"measurement": "signs of toxicity", "setting": "C57Bl/6 mice; 5 and 25 mg/kg i.v., all animals", "result": "none of the animals showed any obvious signs of toxicity; also recorded: none of the animals showed any toxic sign"}, {"measurement": "Toxicity", "setting": "C57Bl/6 mice; a1_high formulation, 25 mg/kg i.v.", "result": "None"}, {"measurement": "Toxicity", "setting": "C57Bl/6 mice; a1_low formulation, 5 mg/kg i.v.", "result": "None"}, {"measurement": "AurA [pKd]", "setting": "AurA [3]", "result": 5.3}, {"measurement": "Kd", "setting": "AurA [3]; [6]", "result": 4.5, "unit": "µM"}, {"measurement": "% Ctrl. TrkA @10 nM", "setting": "TrkA [4]; 10 nM compound", "result": 11, "unit": "% Ctrl."}, {"measurement": "% Ctrl. TrkA @100 nM", "setting": "TrkA [4]; 100 nM compound", "result": 1.9, "unit": "% Ctrl."}, {"measurement": "# Hits", "setting": "panel of 97 kinases; N = 92 non-mutant kinases", "result": 7}, {"measurement": "List of inhibited kinases", "setting": "panel of 97 kinases", "result": "TrkA, TrkB, TrkC, FLT3, KIT,; also recorded: PDGFRb, RET"}, {"measurement": "Selectivity Score", "setting": "panel of 97 kinases; inhibited kinases/tested kinases", "result": "0.08 and 0.076"}, {"measurement": "% Ctrl. AurA @100 nM", "setting": "AurA [5]; 100 nM compound", "result": 97, "unit": "% Ctrl."}, {"measurement": "% Ctrl. AurA @1 μM", "setting": "AurA [5]; 1 μM compound", "result": 92, "unit": "% Ctrl."}]}
